According to US8241866B2, “Method for detection of microorganism and kit for detection of microorganism” (Morinaga Milk Industry Co., Ltd., priority 2005, dated 2012):

What was measured:
Escherichia coli DH5α = experiment: FCM measurement after SYTO9/PI staining of EMA-treated Escherichia coli suspensions (live, injured, dead cells); format: cell-based
[1] = test system: Staphylococcus epidermidis KD strain; experiment: FCM measurement after SYTO9/PI staining of LP-treated and EMA-treated Staphylococcus epidermidis suspensions; format: cell-based; conditions: EMA treatment after LP treatment; 10 μl of 1000 μg/ml EMA to 1 ml, 4° C. 30 minutes, visible light 500 W 10 minutes
[2] = test system: Escherichia coli (injured cells); format: cell-based; conditions: injured cells inoculated at 1.5×10^6 cfu/ml; LP treatment and EMA treatment
[3] = test system: chromosomal DNA of Escherichia coli DH5α; experiment: Agarose gel electrophoresis of chromosomal DNA after EMA treatment, Escherichia coli; format: cell-based; parameters: key: presence of this band was indicated as (+); absence of this band was indicated as (−)
[4] = test system: chromosomal DNA of Klebsiella oxytoca JCM 1665; experiment: Agarose gel electrophoresis of chromosomal DNA after EMA treatment, Klebsiella; format: cell-based; parameters: key: presence of this band was indicated as (+); absence of this band was indicated as (−); conditions: EMA 4° C. 30 minutes
[5] = test system: chromosomal DNA of Citrobacter koseri JCM 1658; experiment: Agarose gel electrophoresis of chromosomal DNA after EMA treatment, Citrobacter; format: cell-based; parameters: key: presence of this band was indicated as (+); absence of this band was indicated as (−); conditions: EMA 4° C. 30 minutes
[6] = test system: chromosomal DNA of Salmonella enteritidis IID 604; experiment: Agarose gel electrophoresis of chromosomal DNA after EMA treatment, Salmonella; format: cell-based; parameters: key: presence of this band was indicated as (+); absence of this band was indicated as (−); conditions: EMA 4° C. 30 minutes
[7] = test system: contaminants in heparinized human blood; experiment: FCM of human blood by EMA-LNP-FP method versus LNP-FP method; format: cell-based; conditions: 10 μl of 1000 μg/ml EMA to 1 ml blood, 4° C. 5 minutes, visible light 5 minutes
Experimental: Heparinized blood (type A) was collected from a healthy human subject, and a Listeria live cell suspension of 1.8×10^8 cfu/ml was diluted 10 times with the blood. The suspension was further serially diluted with the blood to prepare blood inoculated with 1.8×10^3 to […] cfu/ml of Listeria monocytogenes (live cells). […] Then, each sample was irradiated with visible light of 500 W for 5 minutes on ice. 750 μl of physiological saline, 200 μl of a 189 U/ml lipase solution and 10 μl of a 10000 U/ml deoxyribonuclease solution was added to each sample, and the sample was maintained at 30° C. for 30 minutes. […] The total volume of the aforementioned EMA-treated blood was carefully overlaid on 2 ml of Ficoll Paque filled beforehand in a 15 ml volume polypropylene tube, and subjected to centrifugation at 100×g for 5 minutes. […] The same procedure as that of the aforementioned method (referred to as the “EMA-LNP-FP method”) was also performed in parallel except that the EMA treatment was not performed (referred to as the “LNP-FP method”) to prepare a sample for FCM measurement.

[8] = test system: Mycobacterium tuberculosis H37RA; experiment: FCM after SYTO9/PI staining of EMA-treated Mycobacterium tuberculosis (live, injured, dead cells)
[9] = test system: contaminants of somatic cells and injured cells in LTLT non-homogenized milk; experiment: FCM after SYTO9/PI staining of LP-treated and EMA-treated LTLT non-homogenized milk not inoculated with bacteria; conditions: LP-treated and EMA-treated (LPE-treated) LTLT non-homogenized milk not inoculated
Experimental: Each of the LTLT non-homogenized milk inoculated with Escherichia coli (live cells), LTLT non-homogenized milk inoculated with Staphylococcus epidermidis (live cells), and LTLT non-homogenized milk not inoculated with the bacteria was subjected to the same lipase treatment and proteinase K treatment (LP treatment) as well as EMA treatment as those in Example 2.
FCM measurement was performed for each of the samples prepared above (measurement time: 5 minutes) in the same manner as that in Control Example 1.

[10] = test system: Listeria monocytogenes JCM 2873; experiment: Colony formation of Listeria cultured with ampicillin and gentamycin; format: cell-based; conditions: ampicillin 500 μg/ml together with gentamycin 200 μg/ml, 30° C. for 3 weeks
[11] = test system: Escherichia coli (live cells) and contaminants originated in UHT homogenized milk; format: cell-based; conditions: treatment after LP treatment, 37° C.; amsacrine 10 minutes, others 30 minutes; 7.5×10^6 cfu/ml
Excerpt: Specific procedures are as shown in a) to d) described below.

[12] = test system: Mycobacterium tuberculosis H37RA; format: cell-based
[13] = after the EMA treatment, dead cells (boiling water 12 minutes)
[14] = after the EMA treatment, injured cells (boiling water 50 seconds)
[15] = after the EMA treatment, live cells
[16] = after the EMA treatment (about 30 μg/ml, 4° C. 2.5 hours), injured cells treated with isonicotinic acid hydrazide and rifampicin

## CC[n+]1c(-c2ccccc2)c2cc(N=[N+]=[N-])ccc2c2ccc(N)cc21.[Cl-] [EMA, 8-azido-3-amino-6-phenyl-5-ethylphenanthradinium chloride]
Escherichia coli DH5α; EMA treatment after LP treatment, 10 μl of 1000 μg/ml EMA to 1 ml, 4° C. 30 minutes, visible light 500 W 10 minutes
  distinction of live cells and injured cells by FCM: clearly distinguish
Escherichia coli DH5α; after the EMA treatment versus before
  intensity of staining with SYTO9 for injured cells: markedly decreased
Escherichia coli DH5α; [13]
  PI region of main distribution, dead cells: PI(+) (The boundary value of the intensity of the staining with PI is defined to be an intensity of 2×10^2, results exceeding that value are represented as PI(+))
  SYTO9 region of main distribution, dead cells: SYTO9(−) (results lower than that value are represented as SYTO9(−))
Escherichia coli DH5α; [14]
  PI region of main distribution, injured cells: PI(−) (results lower than that value are represented as PI(−))
  SYTO9 region of main distribution, injured cells: SYTO9(−) (results lower than that value are represented as SYTO9(−))
Escherichia coli DH5α; [15]
  PI region of main distribution, live cells: PI(−) (results lower than that value are represented as PI(−))
  SYTO9 region of main distribution, live cells: SYTO9(+) (The boundary value of the intensity of the staining with SYTO9 is defined to be an intensity of 10^3, results exceeding that value are represented as SYTO9(+))
[1]
  distinction of live cells and injured cells by FCM: the same results
[2]
  plotted points in the SYTO9(+)·PI(−) region suggesting the presence of live cells: hardly existed
[3]; EMA-treated dead cells (FIG. 11)
  LL band originated in chromosomal DNA, dead cells: (−)
[3]; EMA-treated injured cells, EMA 4° C. 30 minutes
  LL band originated in chromosomal DNA, injured cells: (−)
[3]; EMA-treated live cells, EMA 4° C. 30 minutes
  LL band originated in chromosomal DNA, live cells: (+)
[4]; EMA-treated injured cells
  LL band originated in chromosomal DNA, injured cells: (−)
[4]; EMA-treated live cells
  LL band originated in chromosomal DNA, live cells: (+)
[5]; EMA-treated injured cells
  LL band originated in chromosomal DNA, injured cells: (−)
[5]; EMA-treated live cells
  LL band originated in chromosomal DNA, live cells: (+)
[6]; EMA-treated injured cells
  LL band originated in chromosomal DNA, injured cells: (−)
[6]; EMA-treated live cells
  LL band originated in chromosomal DNA, live cells: (+)
[7]
  shift of plotted points of the contaminants corresponding to SYTO9(−)·PI(−): not shifted to the left direction
[8]; [16]
  PI region, injured cells: PI(−) (results lower than that value are represented as PI(−))
  SYTO9 region, injured cells: SYTO9(−) (results lower than that value are represented as SYTO9(−))
[8]; [13]
  SYTO9 region of main distribution, dead cells: SYTO9(+) (The boundary value of the intensity of the staining with SYTO9 is defined to be an intensity of 10^3, results exceeding that value are represented as SYTO9(+))
[8]; by the EMA treatment
  SYTO9 intensity of the injured cells: markedly shifted to the left direction
[9]
  SYTO9 intensity: below 5×10^2

## CC1(C)S[C@@H]2[C@H](NC(=O)[C@H](N)c3ccccc3)C(=O)N2[C@H]1C(=O)O [ampicillin]
[10]
  colony formation on L agar medium: did not form colonies

## CC[C@@]1(O)C(=O)OCc2c1cc1n(c2=O)Cc2cc3ccccc3nc2-1 [camptothecin]
[11]
  separation of plotted areas of Escherichia coli (live cells) and contaminants: clearly separated

## O=C(O)c1cn(C2CC2)c2cc(N3CCNCC3)c(F)cc2c1=O [ciprofloxacin]
[11]
  separation of plotted areas of Escherichia coli (live cells) and contaminants: clearly separated

## Cc1c2ccncc2c(C)c2c1[nH]c1ccccc12 [ellipticine]
[11]
  separation of plotted areas of Escherichia coli (live cells) and contaminants: clearly separated

## NNC(=O)c1ccncc1 [isonicotinic acid hydrazide]
[12]
  colony formation on 7H10 medium: did not form colonies

## gentamycin
[10]
  colony formation on L agar medium: did not form colonies
